Test results published in US5369111A, “Modulator agent and use thereof” (University of Vermont, priority 1992, dated 1994).

Tests used:
[1] = Inhibition of population growth (cytotoxicity), S180 sarcoma, parental; assay type: cell-based, mouse; details: mouse, s180 cells; S180; Table III; read-out: Modulator concentration (nontoxic concentration limit of the analog)
Source text: (§1) The analogs were examined in a panel of tumor cell lines of both intrinsic and acquired drug resistance, as described in Table 1. The rat colon adenocarcinoma cell lines RCC-2 and RCC-5 (ref. 13) were maintained in Ham's F12 medium supplemented with 5% heat-inactivated, fetal bovine serum (Sterile Systems. Hyclone, Logan, Utah). The two rat colon cancer cell lines differ in their degree of cellular differentiation; whereas the RCC-2 cell line is undifferentiated, the RCC-5 cell line is highly mucinous. The human epidermoid carcinoma cell line KB-3-1 and its MDR variant KB-Vl, selected by VBL treatment (ref. 14; courtesy of M. Gottesman. National Cancer Institute), was maintained in DMEM medium supplemented with 10%, heat-inactivated, fetal bovine serum. The murine sarcoma cell line […] and its MDR strains A3 and A10 selected by ADM treatment (ref. 15; courtesy of T. Tritton, Dept. Pharmacology, Univ. Vermont). were maintained in DMEM medium supplemented with 10% heat-inactivated, horse serum (Hazelton Biolog. Lenexa, Kans.). Stock cultures were subcultured twice weekly upon reaching the late exponential phase of population growth: population doubling times were 18-24 h. Antibiotics were not used in stock or experimental cultures. The MDR cell strains were grown in drug-free media for 48 h prior to experimental use.
(§2) Mid-exponential cultures were used for all assays. The RCC-2 and RCC-5 cell lines were seeded into 24-well plates at 2×10^4 cells/well and allowed to attach to the substratum for 16-18 h prior to treatment. The S180 cell lines were seeded into culture tubes at 1×10^5 cells/ml and treated immediately. Cytotoxicity was determined by quantitation of population growth after 72 h incubation by electronic particle counter (Coulter Electronics, Hialeah, Fla.). The human tumor cell lines were used in a clonogenic assay for cytotoxicity. Cells were seeded at 300 cells/dish, incubated overnight and then treated. Colonies were scored 7-11 days later. In all assays of analog modulation of drug sensitivity, the analog was added minutes prior to the addition of cytotoxic drug.

[2] = system: parental cell lines (S180, RCC-2, RCC-5); test: Modulation of intrinsic resistance in the parental cell lines (S180, RCC-2, RCC-5); assay type: cell-based, mouse, rat
Experimental: as §2
(§3) *calculated as the IC50 of the drug alone divided by the IC50 o
(§4) the [drug modulator] combination. Data are presented from tretments with
(§5) the nontoxic concentration limit of each analog as noted.

[3] = Inhibition of population growth (cytotoxicity), rat colon adenocarcinoma RCC-2; assay type: cell-based; details: rat, rcc-2 cells; RCC-2; Table III; read-out: Modulator concentration (nontoxic concentration limit of the analog)
Source text: as §1, §2

S180/A10 cells = test: Modulator potency in MDR cells: reversal of acquired resistance, S180/A10; assay type: cell-based, murine; details: for Modulator potency in MDR cells (minimal concentration restoring parental drug sensitivity), ADM: drug resistance level 90; for Modulator potency in MDR cells (minimal concentration restoring parental drug sensitivity), VBL: drug resistance level 10
Experimental: as §2
(§6) To evaluate the ability of vindoline and the two diastereoisomeric VBL analogs to modulate the MDR phenotype (acquired resistance) of the A3 and A10 cell stains, we determined the concentration of compound required to restore drug sensitivities to parental levels. This was done by exposing the MDR cell line to a concentration range of modulator in the presence VBL, VCR and ADM at the respective IC70s of the parental cell line. The cytotoxicity curves for A3 and A10 cells, shown in FIG. 5, are distinctive among the three vinca alkaloids examined. In each cell line, there was a minimum concentration of modulator that elicited 70% growth inhibition for each drug - i.e. the reversing concentration.
(§7) *The minimal concentration of modulator required to restore the drug
(§8) sensitivity of S180/MDR cell strains to that of parental S180 cells. Data
(§9) are the averages of 2-3 separate experiments, S.D. ≤20%.

S180/A3 cells = test: Modulator potency in MDR cells: reversal of acquired resistance, S180/A3; assay type: cell-based, murine; details: for Modulator potency in MDR cells (minimal concentration restoring parental drug sensitivity), VBL: drug resistance level 3; for Modulator potency in MDR cells (minimal concentration restoring parental drug sensitivity), VCR: drug resistance level 7
Experimental: as §2, §6, §7, §8, §9

[4] = system: S180 MDR cell strains A3 and A10; test: Modulation of acquired drug resistance in the S180 MDR cell strains A3 and A10; assay type: cell-based, murine; details: VBL, VCR, ADM
Experimental: as §2, §6
FIG. 5 represents the modulation of multidrug resistance in the MDR cell strains by the vinca alkaloids. Vindoline (A), vincovaline (B), or the analog C-20'-deoxy vincovaline (C) was added, at various concentrations, to A3 (closed symbols) or A10 (opened symbols) cell cultures containing the parental IC70 of each drug: 2.0×10^-7 M. ADM (circles: 1.5×10^-8 M VBL (triangles); and 4.5×10^-8 M; VCR (squares). Population growth was determined 72 hours later.
FIG. 6 represents the relationship between cellular drug resistance level and the minimal modulator concentration required for complete reversal of drug resistance. The drugs examined were ADM (o), VBL (Δ), and VCR (.quadrature.). The amount (concentration) of modulator, necessary to reverse each level of drug resistance contained in the A3 and A10 cell lines, was determined from data such as those of FIG. 5. The values presented were averaged from duplicate samples of two separate experiments, S.D.<15% of the mean. The arrows denote the non-toxic concentration limit for the modulator; in the case of Vincovaline this value is dependent on the MDR cell strain, 2×10^-5 M, A3; 5×10^-5 M. A10.
FIG. 11 represents the modulation of multidrug resistance in the S180 MDR cell strains A3 and A10. The cellular drug resistance level is plotted against the minimal concentration of C-20'-deoxy deethyl vincovaline required for the complete reversal of drug resistance to ADM (o), VBL (Δ), and VCR (.quadrature.). In the case of high level ADM resistance […], the sensitivity of the cells was restored to 80% of the parental value. The arrow denotes the non-toxic concentration limit of the analog.

RCC-5 cells = test: Modulation of intrinsic drug resistance, RCC-5; assay type: cell-based, rat; details: RCC-5; IC50 drug alone / IC50 drug + modulator, at nontoxic concentration limit
Experimental: as §2, §3, §4, §5
FIG. 9 represents the modulation of VCR sensitivity in the RCC-12 (A) and RCC-5 (B) cell lines by the analog C-20'-deoxy deethyl vincovaline. Population growth was determined after 72 hours incubation in the absence (o), or presence of 10 μM (o), 20 μM (Δ), or 50 μM of analog. Data presented are from a typical experiment.

[5] = system: S180/MDR cell system and rat colon cancer cell lines; test: Cytotoxicity in the S180/MDR cell system and the rat colon cancer cell lines; assay type: cell-based, mouse; details: S-180, 72 h
Source text: as §1, §2

RCC-2 cells = test: Modulation of intrinsic drug resistance, RCC-2; assay type: cell-based, rat; details: IC50 drug alone / IC50 drug + modulator, at nontoxic concentration limit
Experimental: as §2, §3, §4, §5

[6] = Inhibition of population growth (cytotoxicity), rat colon adenocarcinoma RCC-5; assay type: cell-based; details: rat, rcc-5 cells; RCC-5; Table III; read-out: Modulator concentration (nontoxic concentration limit of the analog)
Source text: as §1, §2

S180 cells, parental = test: Modulation of intrinsic drug resistance, parental S180; assay type: cell-based, murine; details: S180; IC50 drug alone / IC50 drug + modulator, at nontoxic concentration limit
Experimental: as §2
The ability of the compounds to modulate drug sensitivity in parental cells was studied over a range of concentrations of each compound, from 10^-6 M to the non-toxic (IC10-20) or solubility limit. […] From such experiments, we determined a sensitivity index derived from the IC50 of the drug without modulator treatment divided by the drug IC50 at each concentration of modulator.
When the sensitivity index for each drug, VBL, VCR and ADM is plotted versus the modulator concentration (FIG. 4), we can compare the relative potencies of the compounds as modulators of drug toxicity to the parental S180 cells.
as §3, §4
FIG. 4 represents the potency of the vinca alkaloid compounds as modulators of drug sensitivity in S180 cells. The enhancement of sensitivity was calculated as the sensitivity index=IC50 of the drug alone divided by the IC50 of the drug+modulator. The IC50s for ADM (o) VBL (Δ), or VCR (.quadrature.) were determined over a concentration range of each modulator from data such as those depicted in FIG. 3. The values presented were averaged from duplicate samples of two separate experiments, S.D. <15% of the mean.

CC[C@]12C=CCN3CC[C@@]4(c5cc([C@]6(C(=O)OC)C[C@@H]7CCCN(CCc8c6[nH]c6ccccc86)C7)c(OC)cc5N(C)[C@H]4[C@@](O)(C(=O)OC)[C@@H]1OC(C)=O)[C@@H]32 [analog n° 331, C-16' epi-C-20'-deoxy-C-20'-deethylvinblastine]
MNTC at 72 h [1]: 50 µM
modulation of intrinsic cellular resistance to ADM and/or VCR (in words) [2]: modulated intrinsic cellular resistance to ADM and/or VCR
effect on the sensitivity of parental cells to VBL (in words) [2]: less effect on the sensitivity of parental cells to VBL
MNTC at 72 h [3]: 10 µM
Modulator potency in MDR cells (minimal concentration restoring parental drug sensitivity), ADM (S180/A10 cells): no effect
Modulator potency in MDR cells (minimal concentration restoring parental drug sensitivity), VBL (S180/A10 cells): 34. μM
Modulator potency in MDR cells (minimal concentration restoring parental drug sensitivity), VBL (S180/A3 cells): 5.0 µM
Modulator potency in MDR cells (minimal concentration restoring parental drug sensitivity), VCR (S180/A3 cells): 10. μM
restoration of parental drug sensitivity in MDR cells (in words) [4]: full restoration of parental drug sensitivity was achieved for VBL and low level VCR resistance, only
Maximum sensitization of parental cells by modulator, drug ADM (RCC-5 cells): 3.5
Maximum sensitization of parental cells by modulator, drug VBL (RCC-5 cells): 1.0
Maximum sensitization of parental cells by modulator, drug VCR (RCC-5 cells): 2.0
IC50 [5]: ≥ 5 µM
Maximum sensitization of parental cells by modulator, drug VCR (RCC-2 cells): 2.0
MNTC at 72 h [6]: 20 µM
Maximum sensitization of parental cells by modulator, drug ADM (S180 cells, parental): 3.4
Maximum sensitization of parental cells by modulator, drug VBL (S180 cells, parental): 1.0
Maximum sensitization of parental cells by modulator, drug VCR (S180 cells, parental): 2.5

CC[C@]12C=CCN3CC[C@@]4(c5cc([C@@]6(C(=O)OC)C[C@H]7CCCN(CCc8c6[nH]c6ccccc86)C7)c(OC)cc5N(C)[C@H]4[C@@](O)(C(=O)OC)[C@@H]1OC(C)=O)[C@@H]32 [analog n° 330, C-14'-epi-C-20'-deethyl C-20'-deoxy-vinblastine]
MNTC at 72 h [1]: 20 µM
modulation of intrinsic cellular resistance to ADM and/or VCR (in words) [2]: modulated intrinsic cellular resistance to ADM and/or VCR
effect on the sensitivity of parental cells to VBL (in words) [2]: less effect on the sensitivity of parental cells to VBL
MNTC at 72 h [3]: 10 µM
Modulator potency in MDR cells (minimal concentration restoring parental drug sensitivity), ADM (S180/A10 cells): no effect
Modulator potency in MDR cells (minimal concentration restoring parental drug sensitivity), VBL (S180/A10 cells): 18. μM
Modulator potency in MDR cells (minimal concentration restoring parental drug sensitivity), VBL (S180/A3 cells): 5.2 µM
Modulator potency in MDR cells (minimal concentration restoring parental drug sensitivity), VCR (S180/A3 cells): 11. μM
restoration of parental drug sensitivity in MDR cells (in words) [4]: full restoration of parental drug sensitivity was achieved for VBL and low level VCR resistance, only
Maximum sensitization of parental cells by modulator, drug ADM (RCC-5 cells): 2.2
Maximum sensitization of parental cells by modulator, drug VBL (RCC-5 cells): 2.0
Maximum sensitization of parental cells by modulator, drug VCR (RCC-5 cells): 6.0
IC50 [5]: ≥ 5 µM
Maximum sensitization of parental cells by modulator, drug ADM (RCC-2 cells): 1.0
Maximum sensitization of parental cells by modulator, drug VCR (RCC-2 cells): 2.0
MNTC at 72 h [6]: 10 µM
Maximum sensitization of parental cells by modulator, drug ADM (S180 cells, parental): 4.2
Maximum sensitization of parental cells by modulator, drug VBL (S180 cells, parental): 1.0
Maximum sensitization of parental cells by modulator, drug VCR (S180 cells, parental): 2.0
